Measurements as given in patent US20210254272A1, “TEXTILES HAVING ANTIMICROBIAL PROPERTIES” (Livinguard AG, priority 2015, published 2021).

System: E. coli (ATCC 25922)
Experiment: AATCC Test Method 100-2012 antibacterial activity of the treated textile, after 25 washes and 12 abrasion cycles, contact time 60 minutes
Type: cell-based
Settings: for Performance Test-Log reduction of antimicrobial performance: pad process, 2 min
Method: The antibacterial activity of the textile was tested in accordance with AATCC Test Method 100-2012. Prior to the test, the fabric was cut into coupons of 2×4 inches and washed separately 25 times, and exposed to 12 abrasion cycles, as per US EPA protocol 90072PA4 (described further below). The tests were made against E. coli (ATCC 25922). Contact time was 60 minutes, after inoculating with 10^8 CFU per coupon.

## Silver
Single agent 5 gm/lit, curing 180° C.
  Performance Test-Log reduction of antimicrobial performance: 1.11 Log
Single agent 10 gm/lit, curing 120° C.
  Performance Test-Log reduction of antimicrobial performance: 0.37 Log
Single agent 10 gm/lit, curing 140° C.
  Performance Test-Log reduction of antimicrobial performance: 0.48 Log
Single agent 10 gm/lit, curing 150° C.
  Performance Test-Log reduction of antimicrobial performance: 0.58 Log
Single agent 10 gm/lit, curing 160° C.
  Performance Test-Log reduction of antimicrobial performance: 0.95 Log
Single agent 10 gm/lit, curing 180° C.
  Performance Test-Log reduction of antimicrobial performance: 2.11 Log
Pure cotton fabric, exhaust 80° C., 60 min, dosage 0.1% o.w.f
  Log reduction of antimicrobial performance: 0.55 Log
Pure cotton fabric, exhaust 80° C., 60 min, dosage 0.2% o.w.f
  Log reduction of antimicrobial performance: 1.35 Log
Pure cotton fabric, exhaust 80° C., 60 min, dosage 0.5% o.w.f
  Log reduction of antimicrobial performance: 1.67 Log
Pure cotton fabric, exhaust 80° C., 60 min, dosage 0.8% o.w.f
  Log reduction of antimicrobial performance: 1.84 Log
Pure cotton fabric, exhaust 80° C., 60 min, dosage 1.0% o.w.f
  Log reduction of antimicrobial performance: 2.87 Log
Pure cotton, exhaust 80° C., 1% o.w.f, 60 min, curing 180° C., curing dwell time 0.5 min
  Log reduction of antimicrobial performance: 0.4 Log
Pure cotton, exhaust 80° C., 1% o.w.f, 60 min, curing 180° C., curing dwell time 1.0 min
  Log reduction of antimicrobial performance: 0.6 Log
Pure cotton, exhaust 80° C., 1% o.w.f, 60 min, curing 180° C., curing dwell time 1.5 min
  Log reduction of antimicrobial performance: 1.4 Log
Pure cotton, exhaust 80° C., 1% o.w.f, 60 min, curing 180° C., curing dwell time 2.0 min
  Log reduction of antimicrobial performance: 2.9 Log
Pure cotton, exhaust 80° C., 1% o.w.f, 60 min, curing 180° C., curing dwell time 2.5 min
  Log reduction of antimicrobial performance: 2.2 Log
Pure cotton, exhaust 80° C., 1% o.w.f, 60 min, curing 180° C., curing dwell time 3.0 min
  Log reduction of antimicrobial performance: 1.2 Log
Pure polyester fabric, exhaust 80° C., 60 min, curing 180° C., curing dwell time 0.5 min
  Log reduction of antimicrobial performance: 0.5 Log
Pure polyester fabric, exhaust 80° C., 60 min, curing 180° C., curing dwell time 1.0 min
  Log reduction of antimicrobial performance: 0.9 Log
Pure polyester fabric, exhaust 80° C., 60 min, curing 180° C., curing dwell time 1.5 min
  Log reduction of antimicrobial performance: 1.4 Log
Pure polyester fabric, exhaust 80° C., 60 min, curing 180° C., curing dwell time 2.0 min
  Log reduction of antimicrobial performance: 2.68 Log
Pure polyester fabric, exhaust 80° C., 60 min, curing 180° C., curing dwell time 2.5 min
  Log reduction of antimicrobial performance: 2.21 Log
Pure polyester fabric, exhaust 80° C., 60 min, curing 180° C., curing dwell time 3.0 min
  Log reduction of antimicrobial performance: 1.2 Log
Pure polyester fabric, exhaust 80° C., 60 min, dosage 0.1% o.w.f
  Log reduction of antimicrobial performance: 0.55 Log
Pure polyester fabric, exhaust 80° C., 60 min, dosage 0.2% o.w.f
  Log reduction of antimicrobial performance: 1.43 Log
Pure polyester fabric, exhaust 80° C., 60 min, dosage 0.5% o.w.f
  Log reduction of antimicrobial performance: 1.78 Log
Pure polyester fabric, exhaust 80° C., 60 min, dosage 0.8% o.w.f
  Log reduction of antimicrobial performance: 1.83 Log
Pure polyester fabric, exhaust 80° C., 60 min, dosage 1.0% o.w.f
  Log reduction of antimicrobial performance: 2.67 Log
Solution dosage 0.10% o.w.f, exhaust temperature 40° C., process time 60 min
  Log reduction of antimicrobial performance: 0 Log
Solution dosage 0.10% o.w.f, exhaust temperature 60° C., process time 60 min
  Log reduction of antimicrobial performance: 0 Log
Solution dosage 0.10% o.w.f, exhaust temperature 65° C., process time 60 min
  Log reduction of antimicrobial performance: 0 Log
Solution dosage 0.10% o.w.f, exhaust temperature 70° C., process time 60 min
  Log reduction of antimicrobial performance: 0 Log
Solution dosage 0.10% o.w.f, exhaust temperature 75° C., process time 60 min
  Log reduction of antimicrobial performance: 0.21 Log
Solution dosage 0.10% o.w.f, exhaust temperature 80° C., process time 60 min
  Log reduction of antimicrobial performance: 0.53 Log
Solution dosage 0.10% o.w.f, exhaust temperature 85° C., process time 60 min
  Log reduction of antimicrobial performance: 0.67 Log
Solution dosage 0.10% o.w.f, exhaust temperature 90° C., process time 60 min
  Log reduction of antimicrobial performance: 0.68 Log
Solution dosage 0.10% o.w.f, exhaust temperature 95° C., process time 60 min
  Log reduction of antimicrobial performance: 0.68 Log
Solution dosage 0.20% o.w.f, exhaust temperature 40° C., process time 60 min
  Log reduction of antimicrobial performance: 0 Log
Solution dosage 0.20% o.w.f, exhaust temperature 60° C., process time 60 min
  Log reduction of antimicrobial performance: 0.11 Log
Solution dosage 0.20% o.w.f, exhaust temperature 65° C., process time 60 min
  Log reduction of antimicrobial performance: 0.12 Log
Solution dosage 0.20% o.w.f, exhaust temperature 70° C., process time 60 min
  Log reduction of antimicrobial performance: 0.17 Log
Solution dosage 0.20% o.w.f, exhaust temperature 75° C., process time 60 min
  Log reduction of antimicrobial performance: 0.87 Log
Solution dosage 0.20% o.w.f, exhaust temperature 80° C., process time 60 min
  Log reduction of antimicrobial performance: 1.32 Log
Solution dosage 0.20% o.w.f, exhaust temperature 85° C., process time 60 min
  Log reduction of antimicrobial performance: 1.45 Log
Solution dosage 0.20% o.w.f, exhaust temperature 90° C., process time 60 min
  Log reduction of antimicrobial performance: 1.46 Log
Solution dosage 0.20% o.w.f, exhaust temperature 95° C., process time 60 min
  Log reduction of antimicrobial performance: 1.46 Log
Solution dosage 0.50% o.w.f, exhaust temperature 40° C., process time 60 min
  Log reduction of antimicrobial performance: 0 Log
Solution dosage 0.50% o.w.f, exhaust temperature 60° C., process time 60 min
  Log reduction of antimicrobial performance: 0.23 Log
Solution dosage 0.50% o.w.f, exhaust temperature 65° C., process time 60 min
  Log reduction of antimicrobial performance: 0.13 Log
Solution dosage 0.50% o.w.f, exhaust temperature 70° C., process time 60 min
  Log reduction of antimicrobial performance: 0.18 Log
Solution dosage 0.50% o.w.f, exhaust temperature 75° C., process time 60 min
  Log reduction of antimicrobial performance: 1.05 Log
Solution dosage 0.50% o.w.f, exhaust temperature 80° C., process time 60 min
  Log reduction of antimicrobial performance: 1.56 Log
Solution dosage 0.50% o.w.f, exhaust temperature 85° C., process time 60 min
  Log reduction of antimicrobial performance: 1.76 Log
Solution dosage 0.50% o.w.f, exhaust temperature 90° C., process time 60 min
  Log reduction of antimicrobial performance: 1.78 Log
Solution dosage 0.50% o.w.f, exhaust temperature 95° C., process time 60 min
  Log reduction of antimicrobial performance: 1.78 Log
Solution dosage 0.80% o.w.f, exhaust temperature 40° C., process time 60 min
  Log reduction of antimicrobial performance: 0 Log
Solution dosage 0.80% o.w.f, exhaust temperature 60° C., process time 60 min
  Log reduction of antimicrobial performance: 0.36 Log
Solution dosage 0.80% o.w.f, exhaust temperature 65° C., process time 60 min
  Log reduction of antimicrobial performance: 0.37 Log
Solution dosage 0.80% o.w.f, exhaust temperature 70° C., process time 60 min
  Log reduction of antimicrobial performance: 0.42 Log
Solution dosage 0.80% o.w.f, exhaust temperature 75° C., process time 60 min
  Log reduction of antimicrobial performance: 1.13 Log
Solution dosage 0.80% o.w.f, exhaust temperature 80° C., process time 60 min
  Log reduction of antimicrobial performance: 1.84 Log
Solution dosage 0.80% o.w.f, exhaust temperature 85° C., process time 60 min
  Log reduction of antimicrobial performance: 1.94 Log
Solution dosage 0.80% o.w.f, exhaust temperature 90° C., process time 60 min
  Log reduction of antimicrobial performance: 1.95 Log
Solution dosage 0.80% o.w.f, exhaust temperature 95° C., process time 60 min
  Log reduction of antimicrobial performance: 1.95 Log
Solution dosage 1.00% o.w.f, exhaust temperature 40° C., process time 60 min
  Log reduction of antimicrobial performance: 0 Log
Solution dosage 1.00% o.w.f, exhaust temperature 60° C., process time 60 min
  Log reduction of antimicrobial performance: 0.41 Log
Solution dosage 1.00% o.w.f, exhaust temperature 65° C., process time 60 min
  Log reduction of antimicrobial performance: 0.42 Log
Solution dosage 1.00% o.w.f, exhaust temperature 70° C., process time 60 min
  Log reduction of antimicrobial performance: 0.52 Log
Solution dosage 1.00% o.w.f, exhaust temperature 75° C., process time 60 min
  Log reduction of antimicrobial performance: 1.23 Log
Solution dosage 1.00% o.w.f, exhaust temperature 80° C., process time 60 min
  Log reduction of antimicrobial performance: 2.78 Log
Solution dosage 1.00% o.w.f, exhaust temperature 85° C., process time 60 min
  Log reduction of antimicrobial performance: 2.85 Log
Solution dosage 1.00% o.w.f, exhaust temperature 90° C., process time 60 min
  Log reduction of antimicrobial performance: 2.86 Log
Solution dosage 1.00% o.w.f, exhaust temperature 95° C., process time 60 min
  Log reduction of antimicrobial performance: 2.86 Log
